{
  "source": "PubChem BioAssay (NCI)",
  "assay_in_all_cases": "inhibition of tumour cell growth, NCI panel, 48 h",
  "key": {"T-47D breast": {"tested_on": "T-47D breast"}, "BT-549 breast": {"tested_on": "BT-549 breast"}, "DMS 273 small cell lung": {"tested_on": "DMS 273 small cell lung"}, "LXFL 529 NSCLC": {"tested_on": "LXFL 529 NSCLC"}, "M19-MEL melanoma": {"tested_on": "M19-MEL melanoma"}, "KM20L2 colon": {"tested_on": "KM20L2 colon"}, "HOP-18 NSCLC": {"tested_on": "HOP-18 NSCLC"}, "XF 498 CNS": {"tested_on": "XF 498 CNS"}},
  "note": "Several values for one entry are separate records, joined by “and”; a condition that tells them apart may be missing. Equal values may be shown once.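 Dose response: 5 concentrations. Exposure: 48 h. Format: 96-well plates. Endpoint: linear interpolation; highest concentration if not reached. At the GI50, growth is halved. TGI is the concentration that stops growth completely.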 Activity calls are given as the source filed them. Rule as the data show it: active = GI50 below about 0.43 µM; inactive = the rest. Where a SMILES comes first, the peptide text is derived from it. Bridges are numbered along the chain shown (N, C = ends).",
  "data": [
    {"smiles": "CC[C@H](C)C(=O)O[C@H]1CCC=C2C=C[C@H](C)[C@H](CC[C@@H]3C[C@@H](O)CC(=O)O3)[C@H]21", "values": [
      {"measurement": "GI50", "setting": "T-47D breast", "result": 21.9, "unit": "µM"},
      {"measurement": "TGI", "setting": "T-47D breast", "result": "> 100", "unit": "µM"},
      {"measurement": "GI50", "setting": "BT-549 breast", "result": 14.4, "unit": "µM"},
      {"measurement": "TGI", "setting": "BT-549 breast", "result": "> 78.5", "unit": "µM"}
    ]},
    {"smiles": "COC(=O)c1cc2c([nH]c3ccccc32)c(-c2nc3ccccc3cc2CO)n1", "values": [
      {"measurement": "GI50", "setting": "T-47D breast", "result": "> 100", "unit": "µM"},
      {"measurement": "TGI", "setting": "T-47D breast", "result": "> 100", "unit": "µM"},
      {"measurement": "GI50", "setting": "BT-549 breast", "result": "> 100", "unit": "µM"},
      {"measurement": "TGI", "setting": "BT-549 breast", "result": "> 100", "unit": "µM"}
    ]},
    {"smiles": "Cc1cc2oc(=O)cc(OC/C=C3/CCC(=O)O3)c2cc1C", "values": [
      {"measurement": "GI50", "setting": "T-47D breast", "result": 1.69, "unit": "µM"},
      {"measurement": "TGI", "setting": "T-47D breast", "result": 7.5, "unit": "µM"},
      {"measurement": "GI50", "setting": "BT-549 breast", "result": 1.93, "unit": "µM"},
      {"measurement": "TGI", "setting": "BT-549 breast", "result": 6.73, "unit": "µM"}
    ]},
    {"smiles": "NS(=O)(=O)c1ccc(-n2nc(-c3ccccc3)cc2-c2cc(O)ccc2O)cc1", "values": [
      {"measurement": "GI50", "setting": "T-47D breast", "result": "> 100", "unit": "µM"},
      {"measurement": "TGI", "setting": "T-47D breast", "result": "> 100", "unit": "µM"},
      {"measurement": "GI50", "setting": "BT-549 breast", "result": "> 100", "unit": "µM"},
      {"measurement": "TGI", "setting": "BT-549 breast", "result": "> 100", "unit": "µM"}
    ]},
    {"smiles": "C=C1C(=O)O[C@H]2C3OC3(C)CC/C=C(/C(=O)OC)[C@@H](OC(C)=O)[C@H](OC(=O)C3(C)OC3C)[C@H]12", "note": "(some centres not stated)", "values": [
      {"measurement": "GI50", "setting": "T-47D breast", "result": 4.6, "unit": "µM"},
      {"measurement": "GI50", "setting": "DMS 273 small cell lung", "result": 1.1, "unit": "µg/mL"},
      {"measurement": "TGI", "setting": "DMS 273 small cell lung", "result": 3.73, "unit": "µg/mL"},
      {"measurement": "TGI", "setting": "BT-549 breast", "result": 2.27, "unit": "µM"},
      {"measurement": "outcome", "setting": "LXFL 529 NSCLC", "result": "inactive"},
      {"measurement": "GI50", "setting": "M19-MEL melanoma", "result": 1.94, "unit": "µg/mL"},
      {"measurement": "TGI", "setting": "M19-MEL melanoma", "result": 5.17, "unit": "µg/mL"},
      {"measurement": "outcome", "setting": "KM20L2 colon", "result": "inactive"},
      {"measurement": "outcome", "setting": "HOP-18 NSCLC", "result": "inactive"}
    ]},
    {"smiles": "CCOC1Oc2ccccc2C(=O)/C1=C\\Nc1ccc(C(=O)O)c(O)c1", "note": "(configuration not stated)", "values": [
      {"measurement": "GI50", "setting": "BT-549 breast", "result": 26.4, "unit": "µM"},
      {"measurement": "TGI", "setting": "BT-549 breast", "result": 87.5, "unit": "µM"}
    ]},
    {"smiles": "Cc1cnc(-c2ccc(-c3ccc(NC(=O)Nc4cccc(C(F)(F)F)c4)cc3F)c3c2C(=O)NC3)[nH]1", "values": [
      {"measurement": "GI50", "setting": "T-47D breast", "result": 12.7, "unit": "µM"},
      {"measurement": "TGI", "setting": "T-47D breast", "result": 33.5, "unit": "µM"},
      {"measurement": "GI50", "setting": "BT-549 breast", "result": 10.8, "unit": "µM"},
      {"measurement": "TGI", "setting": "BT-549 breast", "result": 49.1, "unit": "µM"}
    ]},
    {"smiles": "CCc1c2c(nc3ccc(OC(=O)OCc4ccc(B5OC(C)(C)C(C)(C)O5)cc4)cc13)-c1cc3c(c(=O)n1C2)COC(=O)[C@]3(O)CC", "values": [
      {"measurement": "GI50", "setting": "T-47D breast", "result": "< 0.01", "unit": "µM"},
      {"measurement": "TGI", "setting": "T-47D breast", "result": "> 100", "unit": "µM"},
      {"measurement": "GI50", "setting": "BT-549 breast", "result": "< 0.0291", "unit": "µM"},
      {"measurement": "TGI", "setting": "BT-549 breast", "result": 1.51, "unit": "µM"}
    ]},
    {"smiles": "CCCCNP1(NCCCC)=NP(NCCCC)(NCCCC)=NP(NCCCC)(NCCCC)=NP(NCCCC)(NCCCC)=N1", "values": [
      {"measurement": "GI50", "setting": "T-47D breast", "result": 0.26, "unit": "µM"},
      {"measurement": "TGI", "setting": "T-47D breast", "result": 3.07, "unit": "µM"},
      {"measurement": "GI50", "setting": "BT-549 breast", "result": 4.08, "unit": "µM"},
      {"measurement": "TGI", "setting": "BT-549 breast", "result": 15.3, "unit": "µM"}
    ]},
    {"smiles": "O=C(O)C1C2C=CC(O2)C1C(=O)NCc1ccncc1", "note": "(configuration not stated)", "values": [
      {"measurement": "TGI", "setting": "T-47D breast", "result": "> 100", "unit": "µM"}
    ]},
    {"smiles": "COc1ccc(C2CC(c3ccc4ccccc4c3)=NN2c2nc(O)c(C3=c4cc(Cl)ccc4=NC3=O)s2)cc1", "note": "(configuration not stated)", "values": [
      {"measurement": "GI50", "setting": "T-47D breast", "result": "0.0223 µM and < 0.005 µM"},
      {"measurement": "GI50", "setting": "BT-549 breast", "result": "0.0499 µM and < 0.005 µM"}
    ]},
    {"smiles": "CCC(C)C1NC(=O)C(CC(C)C)NC(=O)C(C(C)C)NC(=O)C2CSSCC(NC1=O)C(=O)N2", "note": "(configuration not stated) (cyclo(CCVLI); disulfide 1-2; configuration not given here)", "values": [
      {"measurement": "TGI", "setting": "T-47D breast", "result": 0.182, "unit": "µM"},
      {"measurement": "TGI", "setting": "BT-549 breast", "result": 0.369, "unit": "µM"}
    ]},
    {"smiles": "Nc1nc(N)c(CCCCc2ccccc2)c(/C=C/c2ccc([N+](=O)[O-])cc2)n1", "values": [
      {"measurement": "TGI", "setting": "XF 498 CNS", "result": 3.74, "unit": "µM"},
      {"measurement": "TGI", "setting": "M19-MEL melanoma", "result": 30.3, "unit": "µM"},
      {"measurement": "TGI", "setting": "KM20L2 colon", "result": 20.6, "unit": "µM"}
    ]},
    {"smiles": "O=c1oc2c(O)c(O)cc3c(=O)oc4c(O)c(O)cc1c4c23", "values": [
      {"measurement": "TGI", "setting": "XF 498 CNS", "result": "> 100", "unit": "µM"},
      {"measurement": "GI50", "setting": "DMS 273 small cell lung", "result": "> 100", "unit": "µM"},
      {"measurement": "TGI", "setting": "DMS 273 small cell lung", "result": "> 100", "unit": "µM"},
      {"measurement": "TGI", "setting": "LXFL 529 NSCLC", "result": "> 100", "unit": "µM"},
      {"measurement": "GI50", "setting": "M19-MEL melanoma", "result": "> 100", "unit": "µM"},
      {"measurement": "TGI", "setting": "M19-MEL melanoma", "result": "> 100", "unit": "µM"},
      {"measurement": "TGI", "setting": "KM20L2 colon", "result": "> 100", "unit": "µM"}
    ]},
    {"smiles": "CC(=O)OCC1OC([S-])C(OC(C)=O)C(OC(C)=O)C1OC(C)=O.[Au+].c1ccc(CN2[CH-]N(Cc3ccccc3)C(c3ccccc3)=C2c2ccccc2)cc1", "values": [
      {"measurement": "GI50", "setting": "T-47D breast", "result": "1.72 µM and 0.417 µM"},
      {"measurement": "TGI", "setting": "T-47D breast", "result": "3.81 µM and 2.75 µM"},
      {"measurement": "GI50", "setting": "BT-549 breast", "result": "2.03 µM and 0.375 µM"},
      {"measurement": "TGI", "setting": "BT-549 breast", "result": "4.32 µM and 2.69 µM"}
    ]},
    {"smiles": "C=C(C)C1CC=C(C)C(O)([C@@]2(O)C[C@H](C(=C)C)CC=C2C)C1", "note": "(some centres not stated)", "values": [
      {"measurement": "TGI", "setting": "XF 498 CNS", "result": 29.7, "unit": "µM"},
      {"measurement": "TGI", "setting": "DMS 273 small cell lung", "result": 39.9, "unit": "µM"},
      {"measurement": "TGI", "setting": "LXFL 529 NSCLC", "result": "> 100", "unit": "µM"},
      {"measurement": "TGI", "setting": "M19-MEL melanoma", "result": 38.1, "unit": "µM"}
    ]}
  ]
}
